Measurements from patent US9938269B2, “Inhibitor compounds of phosphodiesterase type 10A” (ABBVIE INC., priority 2011, dated 2018).
pIC50: −log10 of the molar value. Counter-ions that a name gives are not always drawn.

Key:
PDE10A (human) = target: T1, PDE10A (human) (Homo sapiens, UniProt Q9Y233); experiment: Measurement of PDE activity (HTRF cAMP kit), human PDE10A; format: biochemical; settings: PDE enzymatic reaction, substrate 20 nM for PDE10, 60 minutes at 29 C
T1 construct: purchased BPS Bioscience
Method in brief: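 Recombinant human PDE10A (10–250 pM range across PDEs) with 20 nM cAMP substrate in 20 mM Tris-HCl pH 7.5, 10 mM MgCl2, 0.1% BSA, compound pre-mixed with enzyme. Ran 60 min at 29 °C. Remaining cAMP read by HTRF, converted to % of uninhibited activity, and IC50 fitted.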

[1] = Determination of the microsomal half-life, human liver microsomes; settings: human, liver microsomes, pH 7.4
[2] = Determination of the microsomal half-life, rat liver microsomes; settings: rat, liver microsomes, pH 7.4

T1 sequence (Q9Y233 whole entry): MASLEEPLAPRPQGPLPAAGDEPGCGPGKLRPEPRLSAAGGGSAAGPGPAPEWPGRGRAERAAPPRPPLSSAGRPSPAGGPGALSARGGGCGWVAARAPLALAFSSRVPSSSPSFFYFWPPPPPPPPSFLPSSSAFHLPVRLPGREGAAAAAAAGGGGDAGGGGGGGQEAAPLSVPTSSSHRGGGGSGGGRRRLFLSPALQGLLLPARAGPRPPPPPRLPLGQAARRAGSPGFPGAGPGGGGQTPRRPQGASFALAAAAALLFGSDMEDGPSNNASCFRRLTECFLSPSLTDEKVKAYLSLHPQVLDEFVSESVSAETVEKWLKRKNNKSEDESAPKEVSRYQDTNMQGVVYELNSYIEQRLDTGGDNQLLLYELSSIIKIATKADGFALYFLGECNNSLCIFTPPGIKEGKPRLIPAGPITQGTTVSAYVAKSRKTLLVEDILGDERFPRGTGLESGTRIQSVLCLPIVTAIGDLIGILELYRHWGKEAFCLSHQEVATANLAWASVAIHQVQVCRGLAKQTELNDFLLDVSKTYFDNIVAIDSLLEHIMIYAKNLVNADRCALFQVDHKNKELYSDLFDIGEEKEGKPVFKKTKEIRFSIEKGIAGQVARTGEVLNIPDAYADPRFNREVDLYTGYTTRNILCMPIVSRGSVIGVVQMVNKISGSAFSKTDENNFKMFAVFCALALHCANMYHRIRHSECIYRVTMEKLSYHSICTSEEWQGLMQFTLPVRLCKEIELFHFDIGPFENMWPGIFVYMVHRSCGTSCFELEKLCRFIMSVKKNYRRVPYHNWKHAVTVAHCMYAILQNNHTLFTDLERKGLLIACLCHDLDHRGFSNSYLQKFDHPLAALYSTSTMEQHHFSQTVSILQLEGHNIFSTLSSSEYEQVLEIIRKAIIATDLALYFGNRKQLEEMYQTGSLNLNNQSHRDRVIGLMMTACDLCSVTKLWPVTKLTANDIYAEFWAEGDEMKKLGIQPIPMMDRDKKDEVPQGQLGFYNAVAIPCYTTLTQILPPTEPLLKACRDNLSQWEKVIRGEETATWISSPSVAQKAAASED

pIC50 (PDE10A (human)) | microsomal CLint at 0.5 μM [1] | microsomal CLint at 0.5 μM [2] | Structure (SMILES)
> 7.00 | 100 to 220 µL/min/mg | < 100 µL/min/mg | COc1ccc2nc(CCN3Cc4cccc(N5CCOCC5)c4C3=O)ccc2c1 [Example 116, 2-[2-(6-Methoxy-quinolin-2-yl)-ethyl]-7-morpholin-4-yl-2,3-dihydro-isoindol-1-one hydrochloride]
> 7.00 | 100 to 220 µL/min/mg | 100 to 220 µL/min/mg | O=C1Cc2ccc(-c3cccc4c3C(=O)N(CCc3ccc5ccccc5n3)C4)cc2N1 [Example 96, 6-[3-Oxo-2-(2-quinolin-2-yl-ethyl)-2,3-dihydro-1H-isoindol-4-yl]-1,3-dihydro-indol-2-one]
6.70 to 7.00 | 100 to 220 µL/min/mg | 100 to 220 µL/min/mg | COc1cccc(CCN2Cc3nccc(-c4cccnc4)c3C2=O)n1 [compound 503, 6-[2-(6-Methoxy-2-pyridyl)ethyl]-4-(3-pyridyl)-7H-pyrrolo[3,4-b]pyridin-5-one trifluoroacetate]
> 7.00 | < 100 µL/min/mg | < 100 µL/min/mg | O=C1c2c(-c3ccncc3F)ccnc2CN1CCc1cn2ccccc2n1 [compound 534, 4-(3-Fluoro-pyridin-4-yl)-6-(2-imidazo[1,2-a]pyridin-2-yl-ethyl)-6,7-dihydro-pyrrolo[3,4-b]pyridin-5-one]
6.30 to 6.70 | < 100 µL/min/mg | < 100 µL/min/mg | Cc1ccc(CCN2Cc3nccc(N4CCS(=O)(=O)CC4)c3C2=O)nc1 [compound 479, 4-(1,1-Dioxo-1,4-thiazinan-4-yl)-6-[2-(5-methyl-2-pyridyl)ethyl]-7H-pyrrolo[3,4-b]pyridin-5-one trifluoroacetate]
> 7.00 | 100 to 220 µL/min/mg | 100 to 220 µL/min/mg | O=C1c2c(-c3ccncc3)ccnc2CN1CCc1ccc2sccc2n1 [compound 472, 4-(4-Pyridyl)-6-(2-thieno[3,2-b]pyridin-5-ylethyl)-7H-pyrrolo[3,4-b]pyridin-5-one]
> 7.00 | < 100 µL/min/mg | < 100 µL/min/mg | COc1ccc(-c2ccncc2)c2c1CN(CCc1cn3ccccc3n1)C2=O [Example 374, 2-(2-Imidazo[1,2-a]pyridin-2-yl-ethyl)-4-methoxy-7-pyridin-4-yl-2,3-dihydro-isoindol-1-one]
> 7.00 | 100 to 220 µL/min/mg | < 100 µL/min/mg | O=C1c2c(cccc2N2CCOCC2)CN1CCc1ccc2cc(F)ccc2n1 [Example 115, 2-[2-(6-Fluoro-quinolin-2-yl)-ethyl]-7-morpholin-4-yl-2,3-dihydro-isoindol-1-one trifluoroacetate]
> 7.00 | < 100 µL/min/mg | < 100 µL/min/mg | O=C1c2c(N3CCOCC3)ccnc2CN1CCc1cn2ccccc2n1 [Example 270, 6-(2-Imidazo[1,2-a]pyridin-2-yl-ethyl)-4-morpholin-4-yl-6,7-dihydro-pyrrolo[3,4-b]pyridin-5-one di-trifluoroacetate]
> 7.00 | < 100 µL/min/mg | < 100 µL/min/mg | Cn1nccc1-c1ccnc2c1C(=O)N(CCc1ccc3ccccc3n1)C2 [Example 162, 4-(2-Methyl-2H-pyrazol-3-yl)-6-(2-quinolin-2-yl-ethyl)-6,7-dihydro-pyrrolo[3,4-b]pyridin-5-one hydrochloride]
> 7.00 | < 100 µL/min/mg | < 100 µL/min/mg | COc1ccc(-c2cncnc2)c2c1CN(CCc1cn3ccccc3n1)C2=O [Example 217, 2-(2-Imidazo[1,2-a]pyridin-2-yl-ethyl)-4-methoxy-7-pyrimidin-5-yl-2,3-dihydro-isoindol-1-one trifluoroacetate]
6.30 to 6.70 | 100 to 220 µL/min/mg | 100 to 220 µL/min/mg | CNCc1ccc(-c2cccc3c2C(=O)N(CCc2ccc4ccccc4n2)C3)cc1 [Example 194, 7-(4-Methylaminomethyl-phenyl)-2-(2-quinolin-2-yl-ethyl)-2,3-dihydro-isoindol-1-one]
